27 compounds from patent US6800637B2, “Antidepressant indolealkyl derivatives of heterocycle-fused benzodioxan methylamines” (Wyeth, priority 2002, dated 2004) can be followed below.

Structures can show the parent of a compound that is named as a salt.

`Cc1ccc2c3c(ccc2n1)OCC(CN(C)CCCCc1c[nH]c2ccc(F)cc12)O3` (stereo not drawn) (as salt: hydrochloride) [Example 43, [4-(5-Fluoro-1H-indol-3-yl)-butyl]-methyl-(8-methyl-2,3-dihydro-[1,4]dioxino[2,3-f]quinolin-2-ylmethyl}-amine] returned a melting point of 274 to 275 °C.
For `Cc1ccc2c3c(ccc2n1)OCC(CNCCCn1ccc2ccc(F)cc21)O3` (stereo not drawn) (as salt: hydrochloride) [Example 33, [3-(6-Fluoro-indol-1-yl)-propyl]-(8-methyl-2,3-dihydro-[1,4]dioxino[2,3-f]quinolin-2-ylmethyl)amine], the melting point lay in the range of 154 to 156 °C.
Next, `Cc1nc2ccc3c(c2o1)O[C@@H](CNCCCc1c[nH]c2ccc(F)cc12)CO3` (as salt: hydrochloride) [Example 23, N-[3-(5-Fluoro-1H-indol-3-yl)propyl]-N-(2-methyl-7,8-dihydro-[1,4]dioxino[2,3-g][1,3]benzoxazol-8-ylmethyl)amine]: 91 to 93 °C; `CCN(CCCc1c[nH]c2ccc(F)cc12)C[C@H]1COc2ccc3nc(C)oc3c2O1` (as salt: hydrochloride) [Example 36, Ethyl-[3-(5-fluoro-1H-indol-3-yl)-propyl]-(2-methyl-7,8-dihydro-[1,4]dioxino[2,3-g][1,3]benzoxazol-8-ylmethyl)-amine]: 115 °C (dec.).
Compound `CCN(CCCCc1coc2ccccc12)C[C@H]1COc2ccc3nc(C)ccc3c2O1` (as salt: fumarate) [Example 52, N-[4-(1-Benzofuran-3-yl)butyl]-N-ethyl-N-{[(2S)-8-methyl-2,3-dihydro[1,4]dioxino[2,3-f]quinolin-2-yl]methyl}amine] returned a melting point of 87 to 92 °C.
In turn, `Cc1ccc2c3c(ccc2n1)OC[C@H](CNCCCCc1csc2ccc(Cl)cc12)O3` (as salt: fumarate) [Example 49] gave a melting point of 140 to 144 °C.
As to `Cc1ccc2c3c(ccc2n1)OCC(CNCCCCc1c[nH]c2ccccc12)O3` (stereo not drawn) (as salt: fumarate) [Example 9, N-[4-(1H-indol-3-yl)butyl]-N-(8-methyl-2,3-dihydro-[1,4]dioxino[2,3-f]quinolin-2-ylmethyl)amine], the melting point fell in the range of 208 to 210 °C.
Next, `Cc1ccc2c3c(ccc2n1)OCC(CN(C)CCCc1c[nH]c2ccc(F)cc12)O3` (stereo not drawn) (as salt: fumarate) [Example 7, N-[3-(5-Fluoro-1H-indol-3-yl)propyl]-N-methyl-N-(8-methyl-2,3-dihydro-[1,4]dioxino[2,3-f]quinolin-2-ylmethyl)amine]: 104 to 120 °C.
With `Cc1ccc2c3c(ccc2n1)OC[C@H](CNCCCc1csc2ccc(Cl)cc12)O3` (as salt: fumarate) [Example 50], the melting point was 193 to 196 °C.
In the case of `Cc1ccc2c3c(ccc2n1)OCC(CNCCCCn1ccc2ccc(F)cc21)O3` (stereo not drawn) (as salt: hydrochloride) [Example 38, [4-(6-Fluoro-indol-1-yl)-butyl]-(8-methyl-2,3-dihydro-[1,4]dioxino[2,3-f]quinolin-2-ylmethyl)-amine], the melting point was 122 to 127 °C.
In the case of `Cc1ccc2c3c(ccc2n1)OCC(CNCCCCc1cn(C)c2ccc(F)cc12)O3` (stereo not drawn) (as salt: hydrochloride) [Example 35, [4-(5-Fluoro-1-methyl-1H-indol-3-yl)-butyl]-(8-methyl-2,3-dihydro-[1,4]dioxino[2,3-f]quinolin-2-ylmethyl)-amine] it was 229 to 235 °C.
In the case of `Cc1ccc2c3c(ccc2n1)OCC(CN(C)CCCc1cn(C)c2ccc(F)cc12)O3` (stereo not drawn) (as salt: hydrochloride) [Example 42, [3-(5-Fluoro-1-methyl-1H-indol-3-yl)-propyl]-methyl-(8-methyl-2,3-dihydro-[1,4]dioxino[2,3-f]quinolin-2-ylmethyl)-amine], the melting point is 274 to 275 °C.
`Cc1ccc2c3c(ccc2n1)OC[C@H](CNCCCc1csc2ccccc12)O3` (as salt: fumarate) [Example 20] yielded a melting point of 185 to 186 °C.
Regarding `Cc1ccc2c3c(ccc2n1)OC[C@H](CN(C)CCCc1csc2ccccc12)O3` (as salt: fumarate) [Example 22, N-[3-(1-Benzothien-3-yl)propyl]-N-methyl-N-(8-mthyl-2,3-dihydro-[1,4]dioxino[2,3-f]quinolin-2-ylmthyl)amin], the melting point was 123 to 127 °C.
In turn, `Cc1nc2ccc3c(c2o1)O[C@@H](CNCCCc1c[nH]c2ccc(C#N)cc12)CO3` (as salt: hydrochloride) [Example 30, 3-{3-[(2-Methyl-7,8-dihydro-[1,4]dioxino[2,3-g][1,3]benzoxazol-8-ylmethyl)amino]-propyl}-1H-indole-5-carbanitrile] displayed a melting point of 148 to 151 °C.
Take `Cc1ccc2c3c(ccc2n1)OCC(CN(C)CCCc1cn(C)c2c(F)cc(F)cc12)O3` (stereo not drawn) (as salt: hydrochloride) [Example 27, N-[3-(5,7-Difluoro-1-methyl-1H-indol-3-yl)propyl]-N-methyl-N-(8-methyl-2,3-dihydro-[1,4]dioxino[2,3-f]quinolin-2-ylmethyl)amine]: the melting point was 190 to 204 °C.
In the case of `Fc1ccc2[nH]cc(CCCNC[C@H]3COc4ccc5ncccc5c4O3)c2c1` (as salt: hydrochloride) [Example 14, N-(2,3-Dihydro-[1,4]dioxino[2,3-f]quinolin-2-ylmthyl)-N-[3-(5-fluoro-1H-indol-3-yl)propyl]amine] it was 196 to 199 °C.
Take `Cc1ccc2c3c(ccc2n1)OC[C@H](CNCCCc1csc2ccc(F)cc12)O3` (as salt: fumarate) [Example 51, N-[3-(5-Fluoro-1-benzothien-3-yl)propyl]-N-{[(2S)-8-methyl-2,3-dihydro[1,4]dioxino[2,3-f]quinolin-2-yl]methyl}amine]: the melting point fell in the range of 117 to 120 °C.
Regarding `Cc1ccc2c3c(ccc2n1)OCC(CNCCc1csc2ccccc12)O3` (stereo not drawn) (as salt: fumarate) [Example 21, N-[2-(1-Benzothien-3-yl)ethyl]-N-(8-methyl-2,3-dihydro-[1,4]dioxino[2,3-f]quinolin-2-ylmethyl)amine], the melting point lay within 124 to 127 °C.
On to `CCCN(CCCc1c[nH]c2ccc(F)cc12)CC1COc2ccc3nc(C)ccc3c2O1` (stereo not drawn) (as salt: hydrochloride) [Example 45, [3-(5-Fluoro-1H-indol-3-yl)-propyl]-(8-methyl-2,3-dihydro-[1,4]dioxino[2,3-f]quinolin-2-ylmethyl)-propyl-amine], for which the melting point was 164 to 170 °C.
As to `Cc1ccc2c3c(ccc2n1)OCC(CNCCCc1c[nH]c2c(F)cccc12)O3` (stereo not drawn) (as salt: fumarate) [Example 8, N-[3-(7-Fluoro-1H-indol-3-yl)propyl]-N-(8-methyl-2,3-dihydro-[1,4]dioxino[2,3-f]quinolin-2-ylmethyl)amine], the melting point was 142 to 150 °C.
In the case of `COc1cccc2c(CCCNCC3COc4ccc5nc(C)ccc5c4O3)coc12` (stereo not drawn) (as salt: fumarate) [Example 19, N-[3-(7-Methoxy-1-benzofuran-3-yl)propyl]-N-(8-methyl-2,3-dihydro-[1,4]dioxino[2,3-f]quinolin-2-ylmethyl)amine] it was 155 to 160 °C; in that of `Cc1ccc2c3c(ccc2n1)OCC(CNCCCCc1coc2ccccc12)O3` (stereo not drawn) (as salt: fumarate) [Example 28, N-[4-(1-Benzofuran-3-yl)butyl]-N-(8-methyl-2,3-dihydro-[1,4]dioxino[2,3-f]quinolin-2-ylmethyl)amine], 127 to 130 °C; in that of `Cc1ccc2c3c(ccc2n1)OC[C@H](CNCCCc1coc2ccccc12)O3` (as salt: fumarate) [Example 18], 165 to 170 °C.
For `Cc1nc2ccc3c(c2o1)O[C@@H](CN(C)CCCc1c[nH]c2ccc(C#N)cc12)CO3` (as salt: hydrochloride) [Example 31, 3-{3-[M thyl-(2-methyl-7,8-dihydro-[1,4]dioxino[2,3[-g][1,3]benzoxazol-8-ylmethyl)-amino]-propyl)}-1H-indole-5-carbonitrile], the melting point was 140 °C (dec.).
Consider `Cc1ccc2c3c(ccc2n1)OCC(CN(C)CCCCc1cn(C)c2ccc(F)cc12)O3` (stereo not drawn) (as salt: hydrochloride) [Example 44, [4-(5-Fluoro-1-methyl-1H-indol-3-yl)-butyl]-methyl-(8-methyl-2,3-dihydro-[1,4]dioxino[2,3-f]quinolin-2-ylmethyl)-amine], for which the melting point was in the range of 275 to 276 °C.
Turning to `Cc1ccc2c3c(ccc2n1)OCC(CNCCCc1c[nH]c2ccccc12)O3` (stereo not drawn) (as salt: fumarate) [Example 6, N-[3-(1H-Indol-3-yl)propyl]-N-(8-methyl-2,3-dihydro-[1,4]dioxino[2,3-f]quinolin-2-ylmethyl)amine], the melting point was 202 to 203 °C.
